This note sets out measurements from patent publication US9751878B2, “Tetrahydronaphthyridine somatostatin receptor 5 antagonists” (Takeda Pharmaceutical Company Limited, priority 2013, dated 2017).

The target of this test is T1, human SSTR5 (Homo sapiens, UniProt P35346).
T1 construct: expressed in transfected cells
T1 sequence (P35346 whole entry): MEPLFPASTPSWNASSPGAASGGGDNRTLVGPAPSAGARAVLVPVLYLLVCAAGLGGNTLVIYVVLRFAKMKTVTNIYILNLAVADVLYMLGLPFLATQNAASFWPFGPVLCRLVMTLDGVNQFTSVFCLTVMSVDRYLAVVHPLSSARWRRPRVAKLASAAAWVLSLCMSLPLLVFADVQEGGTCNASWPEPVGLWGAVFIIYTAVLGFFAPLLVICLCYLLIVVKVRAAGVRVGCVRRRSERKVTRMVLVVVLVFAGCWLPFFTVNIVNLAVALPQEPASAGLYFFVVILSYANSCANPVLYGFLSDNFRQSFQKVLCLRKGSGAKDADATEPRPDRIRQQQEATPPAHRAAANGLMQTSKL
The experiment in a line: Evaluation of human SSTR5 antagonist activity using intracellular cAMP concentration as index. Type of test: cell-based. The settings on record: 1 μM test compound; CHO (dhfr-) cells stably expressing human SSTR5; 0.1 nM somatostatin 28, 0.3 μM forskolin; cAMP HTRF; read-out: Inhibition rate against SSTR5 at 1 μM. How it is done: Evaluation of Human SSTR5 Antagonist Activity Using Intracellular cAMP Concentration as Index
The intracellular cAMP concentration was measured using HTRF cAMP dynamic 2 kit (Cisbio Bioassays). Each test compound diluted with an assay buffer (HBSS (Invitrogen Corp.) containing 5 mM HEPES (pH 7.5) (Invitrogen Corp.), 0.1% fatty-acid free BSA (Sigma-Aldrich Corp.), and 500 μM IBMX (Wako Pure Chemical Industries, Ltd.)) was added at a concentration of 2 μL/well to a 384-well white plate (Greiner Bio-One Co., Ltd.) to give the final concentration of 1 μM. A frozen stock of CHO (dhfr-) cells stably expressing the human SSTR5 gene (Accession No. NM_001053) was thawed in a thermostat bath of 37° C. and suspended in a subculture medium (MEM alpha (Wako Pure Chemical Industries, Ltd.), 10% dialyzed serum (Gemini Bio-Products), and 50 μg/mL gentamicin (Invitrogen Corp.). After centrifugation of the cell suspension, the cells were resuspended in an assay buffer and added at a concentration of 2 μL/well (about 4,000 cells/well) to the plate. The compound and the cells were incubated for 15 minutes, and then, an assay buffer containing 0.1 nM (final concentration) somatostatin 28 (Toray Research Center) and 0.3 μM (final concentration) forskolin (Wako Pure Chemical Industries, Ltd.) was added thereto at a concentration of 2 μL/well, followed by incubation at room temperature for 30 minutes. cAMP-d2 and anti-cAMP-cryptate were each added thereto at a concentration of 3 μL/well. The plate was left standing at room temperature for 60 minutes. Then, the fluorescence resonance energy transfer (FRET) intensity was measured using Multi-label reader Envision (PerkinElmer). The FRET intensity of the wells supplemented with the test compound group was converted to a cAMP concentration using a calibration curve prepared from the FRET intensity of a well group containing an assay buffer supplemented with an arbitrary concentration of cAMP. The inhibitory activity of each compound was calculated according to the following expression: Inhibitory activity (%)=(C−B)/(A−B)×100 A: cAMP concentration calculated from the wells supplemented with 0.3 μM forskolin B: cAMP concentration calculated from the wells supplemented with 0.3 μM forskolin and 0.1 nM somatostatin 28 C: cAMP concentration calculated from the wells supplemented with 0.3 μM forskolin, 0.1 nM somatostatin 28, and 1 μM test compound
By inhibition is commonly meant the change of the read-out against control, counted positive when it falls. As for `CCCc1nc2c(cc1C(=O)O)C(=O)N(C1CCN(Cc3cc(OCC)c(-c4ccc(F)cc4)c(C4CC4)c3)CC1)CC2` [Example 36, 6-(1-((2-Cyclopropyl-6-ethoxy-4′-fluorobiphenyl-4-yl)methyl)piperidin-4-yl)-5-oxo-2-propyl-5,6,7,8-tetrahydro-1,6-naphthyridine-3-carboxylic acid], the inhibition at 1 µM stood at 94%.
As to `CCc1nc2c(cc1C(=O)O)C(=O)N(C1CCN(Cc3cc(C4CC4)c(-c4ccc(F)cc4)cc3OC(C)C)CC1)CC2` [Example 44, 6-(1-((2-Cyclopropyl-4′-fluoro-5-isopropoxybiphenyl-4-yl)methyl)piperidin-4-yl)-2-ethyl-5-oxo-5,6,7,8-tetrahydro-1,6-naphthyridine-3-carboxylic acid], the inhibition at 1 µM was 111%.
For `CCc1nc2c(cc1C(=O)O)C(=O)N(C1CCN(Cc3cc(C4CC4)c(-c4ccc(F)cc4F)cc3OC(C)C)CC1)CC2` [Example 46, 6-(1-((2-Cyclopropyl-2′,4′-difluoro-5-isopropoxybiphenyl-4-yl)methyl)piperidin-4-yl)-2-ethyl-5-oxo-5,6,7,8-tetrahydro-1,6-naphthyridine-3-carboxylic acid], the inhibition at 1 µM came to 86%.
On to `CCCc1nc2c(cc1C(=O)O)C(=O)N(C1CCN(Cc3cc(C4CC4)c(-c4ccc(F)c(F)c4)cc3OCC)CC1)CC2` [Example 43, 6-(1-((2-Cyclopropyl-5-ethoxy-3′,4′-difluorobiphenyl-4-yl)methyl)piperidin-4-yl)-5-oxo-2-propyl-5,6,7,8-tetrahydro-1,6-naphthyridine-3-carboxylic acid], for which the inhibition at 1 µM worked out at 95%.
Take `CCCc1nc2c(cc1C(=O)O)C(=O)N(C1CCN(Cc3cc(C4CC4)c(-c4ccc(F)cc4)c(F)c3OC)CC1)CC2` [Example 81, 6-(1-((6-Cyclopropyl-2,4′-difluoro-3-methoxybiphenyl-4-yl)methyl)piperidin-4-yl)-5-oxo-2-propyl-5,6,7,8-tetrahydro-1,6-naphthyridine-3-carboxylic acid]: the inhibition at 1 µM was determined as 82%.
In the case of `CCCc1nc2c(cc1C(=O)O)C(=O)N(C1CCN(Cc3cc(C4CC4)c(-c4ccc(F)cc4)cc3OC(C)C)CC1)CC2` [Example 37, 6-(1-((2-Cyclopropyl-4′-fluoro-5-isopropoxybiphenyl-4-yl)methyl)piperidin-4-yl)-5-oxo-2-propyl-5,6,7,8-tetrahydro-1,6-naphthyridine-3-carboxylic acid] it was 97%; in that of `CCOc1cc(C2CCC2)c(C2CC2)cc1CN1CCC(N2CCc3ncc(C(=O)O)cc3C2=O)CC1` [Example 30, 6-(1-(4-Cyclobutyl-5-cyclopropyl-2-ethoxybenzyl)piperidin-4-yl)-5-oxo-5,6,7,8-tetrahydro-1,6-naphthyridine-3-carboxylic acid], 110%.
For `CC(C)Oc1cc(-c2ccc(F)cc2)c(C2CC2)cc1CN1CCC(N2CCc3nc(C(C)C)c(C(=O)O)cc3C2=O)CC1` [Example 50, 6-(1-((2-Cyclopropyl-4′-fluoro-5-isopropoxybiphenyl-4-yl)methyl)piperidin-4-yl)-2-isopropyl-5-oxo-5,6,7,8-tetrahydro-1,6-naphthyridine-3-carboxylic acid] the value was 99%.
In the case of `Cc1nc2c(cc1C(=O)O)C(=O)N(C1CCN(Cc3cc(C4CC4)c(-c4ccc(F)cc4)cc3OC(C)C)CC1)CC2` [Example 7, 6-(1-((2-Cyclopropyl-4′-fluoro-5-isopropoxybiphenyl-4-yl)methyl)piperidin-4-yl)-2-methyl-5-oxo-5,6,7,8-tetrahydro-1,6-naphthyridine-3-carboxylic acid] it was 88%; in that of `CCOc1cc(-c2ccc(F)cc2)c(C2CC2)cc1CN1CCC(N2CCc3nc(C4CC4)c(C(=O)O)cc3C2=O)CC1` [Example 3, 2-Cyclopropyl-6-(1-((2-cyclopropyl-5-ethoxy-4′-fluorobiphenyl-4-yl)methyl)piperidin-4-yl)-5-oxo-5,6,7,8-tetrahydro-1,6-naphthyridine-3-carboxylic acid], 115%.
